Where “and” joins values, the source holds several entries; their conditions need not be identical. Identical values can stand only once.
Tests used:
[1] = target: VMAT2 (Rattus norvegicus, UniProt Q01827); assay: Competition for [3H](±)TBZ binding in rat striatal homogenates; parameters: The basal forebrain regions of rat and mouse brains were then dissected; from tissue; host or cells: rat striatum / basal forebrain homogenate; conditions: Kd […] used for calculation
[2] = Biodistribution of [18F]6a and [18F]6b in normal mice (iv injection); format: in vivo, ICR mice
Description: While under isoflurane anesthesia, 0.15 mL of a 0.1% bovine serum albumin solution containing [^18F]tracers (10-20 μCi) were injected directly into the tail vein of ICR mice (22-25 g, male) The mice (n=3 for each time point) were sacrificed by cervical dislocation at indicated time points post injection. The organs of interest were removed and weighed, and the radioactivity was counted with an automatic gamma counter. The percentage dose per organ was calculated by a comparison of the tissue counts to suitably diluted aliquots of the injected material. Total activities of blood were calculated under the assumption that they were 7% of the total body weight. The % dose/g of samples was calculated by comparing the sample counts with the count of the diluted initial dose.

[3] = target: VMAT2 (Mus musculus, UniProt Q8BRU6); assay: Saturation binding of 18F ligands in mouse striatal homogenates; parameters: The basal forebrain regions of rat and mouse brains were then dissected; from tissue; host or cells: mouse striatal homogenate; mouse brain coronal sections; conditions: estimated based on S.A.=2000 Ci/mmole
Sequence of VMAT2 (Mus musculus, UniProt Q8BRU6) (Q8BRU6 whole entry): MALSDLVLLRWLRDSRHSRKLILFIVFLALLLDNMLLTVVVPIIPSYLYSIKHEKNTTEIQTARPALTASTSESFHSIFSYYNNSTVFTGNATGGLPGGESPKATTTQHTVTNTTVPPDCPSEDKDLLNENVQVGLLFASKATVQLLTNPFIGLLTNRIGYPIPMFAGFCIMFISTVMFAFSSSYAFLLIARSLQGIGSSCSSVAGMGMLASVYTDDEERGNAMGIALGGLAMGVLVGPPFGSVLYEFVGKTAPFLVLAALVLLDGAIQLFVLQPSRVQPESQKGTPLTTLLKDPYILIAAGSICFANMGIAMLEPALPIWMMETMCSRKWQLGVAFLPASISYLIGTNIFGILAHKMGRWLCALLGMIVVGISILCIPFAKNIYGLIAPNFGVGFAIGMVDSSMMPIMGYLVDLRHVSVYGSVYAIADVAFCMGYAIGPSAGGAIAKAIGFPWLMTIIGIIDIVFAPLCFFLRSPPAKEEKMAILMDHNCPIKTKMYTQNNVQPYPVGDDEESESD
Description: The basal forebrain regions of rat and mouse brains were then dissected. The tissue homogenates were prepared in 50 mM Hepes, pH 7.5 and 0.3 M sucrose. The specific binding of ^3H or ^18F ligands were determined following the procedures described (Scherman D, Raisman R, Ploska A, Agid Y., [^3H]Dihydrotetrabenazine, a new in vitro monoaminergic probe for human brain, J. Neurochem., 1988:50:1131-36). Total volume of reaction for the assay was 0.2 ml. […] In saturation experiments, increasing concentrations of labeled ligand […] in 50 μl buffer were incubated with 100 μl of homogenates (100-250 μg). Incubation was carried out routinely at room temperature for 90 min. The samples were then filtered through glass fiber filters No. 25 (Schleicher and Schuell, Keene, N.H.) and the bound radioactivity was determined for ^18F in a gamma counter (Packard 5000) with 70% efficiency. Filters containing bound ^3H ligand were dissolved in 7 ml Ecolite(+) overnight and the radioactivity was counted next day in the scintillation counter (Beckman) with 65% counting efficiency. […] Nonspecific binding was determined in the presence of 10 μM tetrabenazine. Both saturation and competition experiments were analyzed using the nonlinear least-square curve fitting program LIGAND. […]

[4] = Partition coefficient 1-octanol/phosphate buffer; format: physicochemical; conditions: pH 7.4, 1-octanol and phosphate buffer
Description: Partition coefficients were measured by mixing the [^18F]tracer with 3 g each of 1-octanol and buffer (0.1 M phosphate, pH 7.4) in a test tube. The test tube was vortexed for 3 min at room temperature, followed by centrifugation for 5 min. Two weighed samples (0.5 g each) from the 1-octanol and buffer layers were counted in a well counter. The partition coefficient was determined by calculating the ratio of cpm/g of 1-octanol to that of buffer. Samples from the 1-octanol layer were re-partitioned until consistent partitions of coefficient values were obtained. Values are the mean±SEM of three independent experiments, each in duplicates.

[5] = target: DAT sites (Mus musculus, UniProt Q61327); assay: Dual isotope experiment in lesioned mice, [125I]IPT
Sequence of DAT sites (Q61327 whole entry): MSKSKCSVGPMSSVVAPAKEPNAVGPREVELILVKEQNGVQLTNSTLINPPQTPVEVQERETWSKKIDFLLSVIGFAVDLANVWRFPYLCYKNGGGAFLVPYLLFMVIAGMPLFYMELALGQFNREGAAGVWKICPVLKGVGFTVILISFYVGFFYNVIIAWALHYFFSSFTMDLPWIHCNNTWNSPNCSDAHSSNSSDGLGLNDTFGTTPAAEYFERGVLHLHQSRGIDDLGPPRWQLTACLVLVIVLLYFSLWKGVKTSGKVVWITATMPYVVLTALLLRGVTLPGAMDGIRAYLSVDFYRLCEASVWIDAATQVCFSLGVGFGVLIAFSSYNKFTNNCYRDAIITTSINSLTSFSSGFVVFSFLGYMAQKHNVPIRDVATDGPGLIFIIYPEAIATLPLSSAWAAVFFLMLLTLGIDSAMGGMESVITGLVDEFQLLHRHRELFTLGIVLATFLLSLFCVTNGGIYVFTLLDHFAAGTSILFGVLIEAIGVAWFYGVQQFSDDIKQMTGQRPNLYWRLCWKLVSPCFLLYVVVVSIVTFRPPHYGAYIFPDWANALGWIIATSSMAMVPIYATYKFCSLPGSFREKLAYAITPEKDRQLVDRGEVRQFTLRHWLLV
Description: Thirty minutes after injection, the mice were sacrificed and the brains removed. Different regions corresponding to striatum (ST), hippocampus (HP), cerebellum (CB), and cortex (CX) were dissected. In particular, the lesioned region was separated from non-lesioned area of the striatal tissues. Samples were counted in a gamma counter with two different window settings for F-18 and I-125, respectively, to obtain the regional distribution of each tracer.
To measure the degree of lesion, a dual-isotope experiment comparing the striatal uptakes in lesioned vs. unlesioned sites using [^18F]FP-DTBZ was performed. A marker [^125I]IPT (selective for dopamine transporters) was injected simultaneously.

[6] = lesioned Mouse 1, 30 min post-injection
[7] = lesioned Mouse 2, 30 min post-injection
[8] = lesioned Mouse 3, 30 min post-injection
[9] = lesioned Mouse 4, 30 min post-injection

Sequence of VMAT2 (Rattus norvegicus, UniProt Q01827) (Q01827 whole entry): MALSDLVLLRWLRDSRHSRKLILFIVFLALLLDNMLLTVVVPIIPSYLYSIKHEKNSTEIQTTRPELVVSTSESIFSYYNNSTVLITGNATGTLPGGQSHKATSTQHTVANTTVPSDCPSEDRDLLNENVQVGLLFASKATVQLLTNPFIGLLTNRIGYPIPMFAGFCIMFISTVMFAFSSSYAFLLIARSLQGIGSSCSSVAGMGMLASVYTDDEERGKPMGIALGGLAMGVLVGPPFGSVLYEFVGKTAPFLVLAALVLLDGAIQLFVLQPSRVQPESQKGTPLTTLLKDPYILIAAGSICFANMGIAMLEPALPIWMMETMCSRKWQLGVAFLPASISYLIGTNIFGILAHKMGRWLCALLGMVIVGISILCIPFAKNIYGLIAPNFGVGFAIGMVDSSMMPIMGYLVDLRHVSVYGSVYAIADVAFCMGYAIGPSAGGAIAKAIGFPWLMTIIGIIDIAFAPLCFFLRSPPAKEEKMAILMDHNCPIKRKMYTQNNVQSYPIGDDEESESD

## COc1cc2c(cc1O)CCN1CC(CC(C)C)C(O)CC21 (racemic) [3,9-desmethyl-(±)DTBZ, (±)-9-O-Desmethyldihydrotetrabenazine, reference compound]
[1]; [3H](±)TBZ 1.0-1.5 nM
  Ki: 11.8 ± 1.7 nM

## COc1cc2c(cc1OCCCF)CCN1CC(CC(C)C)C(O)CC21 (racemic) [Compound 6b, (±)-2-hydroxy-3-isobutyl-9-(3-fluoropropoxy)-10-methoxy-1,2,3,4,6,7-hexahydro-11bH-benzo[a]quinolizine]
[1]; [3H](±)-TBZ
  Ki: 0.19 ± 0.04 nM

## COc1cc2c(cc1OCC[18F])CCN1CC(CC(C)C)C(O)CC21 (racemic) [[^18F]6a]
[2]; 30 min p.i., normal mice
  remaining in brain (brain washout): > 50%
[2]; mice, iv, 2 min
  brain uptake: 4.66 % ID/g
[2]; mice, iv, time not stated
  ST/CB ratio: 1.9
[2]; normal mice, iv, 2 min
  Organ distribution Blood: 2.68 ± 0.37 % dose/g
  Organ distribution Bone: 2.07 ± 0.05 % dose/g
  Organ distribution Brain: 4.66 % dose/g and 4.66 ± 0.78 % dose/g
  Organ distribution Heart: 4.49 ± 0.85 % dose/g
  Organ distribution Kidney: 10.7 ± 3.06 % dose/g
  Organ distribution Liver: 18.2 ± 4.14 % dose/g
  Organ distribution Lung: 5.83 ± 1.25 % dose/g
  Organ distribution Muscle: 0.66 ± 0.10 % dose/g
  Organ distribution Skin: 0.91 ± 0.10 % dose/g
  Organ distribution Spleen: 8.11 ± 0.90 % dose/g
  Ratio (vs CB) Cortex: 1.06
  Ratio (vs CB) Hippocampus: 1.09
  Ratio (vs CB) Striatum: 1.23
  Regional brain distribution Cerebellum (CB): 4.42 ± 0.74 % dose/g
  Regional brain distribution Cortex: 4.70 ± 0.66 % dose/g
  Regional brain distribution Hippocampus: 4.84 ± 0.72 % dose/g
  Regional brain distribution Striatum: 5.46 ± 0.80 % dose/g
[2]; normal mice, iv, 15 min
  Organ distribution Blood: 2.05 ± 0.17 % dose/g
  Organ distribution Bone: 2.40 ± 0.23 % dose/g
  Organ distribution Brain: 2.10 ± 0.25 % dose/g
  Organ distribution Heart: 1.99 ± 0.19 % dose/g
  Organ distribution Kidney: 5.51 ± 1.55 % dose/g
  Organ distribution Liver: 10.5 ± 1.48 % dose/g
  Organ distribution Lung: 2.96 ± 0.30 % dose/g
  Organ distribution Muscle: 1.01 ± 0.02 % dose/g
  Organ distribution Skin: 1.19 ± 0.03 % dose/g
  Organ distribution Spleen: 2.77 ± 0.33 % dose/g
  Ratio (vs CB) Cortex: 0.92
  Ratio (vs CB) Hippocampus: 1.18
  Ratio (vs CB) Striatum: 1.91
  Regional brain distribution Cerebellum (CB): 1.97 ± 0.22 % dose/g
  Regional brain distribution Cortex: 1.82 ± 0.19 % dose/g
  Regional brain distribution Hippocampus: 2.33 ± 0.30 % dose/g
  Regional brain distribution Striatum: 3.76 ± 0.51 % dose/g
[2]; normal mice, iv, 30 min
  Organ distribution Blood: 2.27 ± 0.11 % dose/g
  Organ distribution Bone: 3.88 % dose/g and 3.88 ± 0.47 % dose/g
  Organ distribution Brain: 2.09 ± 0.09 % dose/g
  Organ distribution Heart: 2.14 ± 0.11 % dose/g
  Organ distribution Kidney: 4.18 ± 0.33 % dose/g
  Organ distribution Liver: 8.85 ± 1.34 % dose/g
  Organ distribution Lung: 2.83 ± 0.25 % dose/g
  Organ distribution Muscle: 1.52 ± 0.07 % dose/g
  Organ distribution Skin: 1.72 ± 0.11 % dose/g
  Organ distribution Spleen: 2.62 ± 0.20 % dose/g
  Ratio (vs CB) Cortex: 1.00
  Ratio (vs CB) Hippocampus: 1.03
  Ratio (vs CB) Striatum: 1.71
  Regional brain distribution Cerebellum (CB): 1.97 ± 0.14 % dose/g
  Regional brain distribution Cortex: 1.96 ± 0.14 % dose/g
  Regional brain distribution Hippocampus: 2.02 ± 0.10 % dose/g
  Regional brain distribution Striatum: 3.37 ± 0.06 % dose/g
[2]; normal mice, iv, 1 hr
  Organ distribution Blood: 1.75 ± 0.16 % dose/g
  Organ distribution Bone: 5.84 ± 1.42 % dose/g
  Organ distribution Brain: 1.51 ± 0.20 % dose/g
  Organ distribution Heart: 1.53 ± 0.15 % dose/g
  Organ distribution Kidney: 2.27 ± 0.39 % dose/g
  Organ distribution Liver: 3.88 ± 0.40 % dose/g
  Organ distribution Lung: 1.74 ± 0.04 % dose/g
  Organ distribution Muscle: 1.05 ± 0.03 % dose/g
  Organ distribution Skin: 1.23 ± 0.06 % dose/g
  Organ distribution Spleen: 1.56 ± 0.07 % dose/g
  Ratio (vs CB) Cortex: 1.12
  Ratio (vs CB) Hippocampus: 1.05
  Ratio (vs CB) Striatum: 1.71
  Regional brain distribution Cerebellum (CB): 1.85 ± 0.20 % dose/g
  Regional brain distribution Cortex: 2.07 ± 0.42 % dose/g
  Regional brain distribution Hippocampus: 1.95 ± 0.49 % dose/g
  Regional brain distribution Striatum: 3.17 ± 0.79 % dose/g
[2]; normal mice, iv, 2 hr
  Organ distribution Blood: 1.38 ± 0.20 % dose/g
  Organ distribution Bone: 8.89 ± 0.75 % dose/g
  Organ distribution Brain: 1.13 ± 0.10 % dose/g
  Organ distribution Heart: 1.22 ± 0.13 % dose/g
  Organ distribution Kidney: 1.40 ± 0.30 % dose/g
  Organ distribution Liver: 3.36 ± 0.32 % dose/g
  Organ distribution Lung: 1.29 ± 0.19 % dose/g
  Organ distribution Muscle: 0.73 ± 0.13 % dose/g
  Organ distribution Skin: 0.85 ± 0.10 % dose/g
  Organ distribution Spleen: 1.06 ± 0.10 % dose/g
  Ratio (vs CB) Cortex: 0.81
  Ratio (vs CB) Hippocampus: 1.12
  Ratio (vs CB) Striatum: 1.28
  Regional brain distribution Cerebellum (CB): 1.09 ± 0.03 % dose/g
  Regional brain distribution Cortex: 0.88 ± 0.21 % dose/g
  Regional brain distribution Hippocampus: 1.22 ± 0.18 % dose/g
  Regional brain distribution Striatum: 1.39 ± 0.03 % dose/g
[3]
  Kd: 0.52 nM
[4]
  logD at 3 min: 2.12

## COc1cc2c(cc1OCCCF)CCN1CC(CC(C)C)C(O)CC21 (single isomer, unassigned) [FP-(−)-DTBZ]
[1]; [3H](±)-TBZ
  Ki: > 3000 nM

## COC(=O)C1C(c2ccc(Cl)cc2)CC2CCC1N2CC=CI (stereo not drawn) [[^125I]IPT, N-(3′-iodopropen-2′-yl)-2-beta-carbomethoxy-3-beta-(4-chlorophenyl)tropane]
[5]; [6]
  % StrL/StrN: 32.6%
  Regional brain distribution Cerebellum (CB): 0.96 % dose/g
  Regional brain distribution Cortex: 0.69 % dose/g
  Regional brain distribution Hippocampus: 0.87 % dose/g
  Regional brain distribution Hypothalamus: 1.28 % dose/g
  Regional brain distribution Remainder: 1.34 % dose/g
  ratio vs. CB, Cerebellum (CB): 1.00
  ratio vs. CB, Cortex: 0.72
  ratio vs. CB, Hippocampus: 0.91
  ratio vs. CB, Hypothalamus: 1.34
  ratio vs. CB, Remainder: 1.40
  ratio vs. CB, Stratum N: 9.63
  ratio vs. CB, Striatum L: 3.14
[5]; [7]
  % StrL/StrN: 55.7%
  Regional brain distribution Cerebellum (CB): 0.77 % dose/g
  Regional brain distribution Cortex: 0.62 % dose/g
  Regional brain distribution Hippocampus: 0.70 % dose/g
  Regional brain distribution Hypothalamus: 1.22 % dose/g
  Regional brain distribution Remainder: 1.16 % dose/g
  ratio vs. CB, Cerebellum (CB): 1.00
  ratio vs. CB, Cortex: 0.80
  ratio vs. CB, Hippocampus: 0.90
  ratio vs. CB, Hypothalamus: 1.58
  ratio vs. CB, Remainder: 1.49
  ratio vs. CB, Stratum N: 8.17
  ratio vs. CB, Striatum L: 4.55
[5]; [8]
  % StrL/StrN: 52.3%
  Regional brain distribution Cerebellum (CB): 0.81 % dose/g
  Regional brain distribution Cortex: 0.66 % dose/g
  Regional brain distribution Hippocampus: 0.81 % dose/g
  Regional brain distribution Hypothalamus: 1.42 % dose/g
  Regional brain distribution Remainder: 1.57 % dose/g
  ratio vs. CB, Cerebellum (CB): 1.00
  ratio vs. CB, Cortex: 0.81
  ratio vs. CB, Hippocampus: 1.00
  ratio vs. CB, Hypothalamus: 1.76
  ratio vs. CB, Remainder: 1.95
  ratio vs. CB, Stratum N: 11.3
  ratio vs. CB, Striatum L: 5.90
[5]; [9]
  % StrL/StrN: 88.7%
  Regional brain distribution Cerebellum (CB): 0.76 % dose/g
  Regional brain distribution Cortex: 0.87 % dose/g
  Regional brain distribution Hippocampus: 0.62 % dose/g
  Regional brain distribution Hypothalamus: 0.99 % dose/g
  Regional brain distribution Remainder: 1.16 % dose/g
  ratio vs. CB, Cerebellum (CB): 1.00
  ratio vs. CB, Cortex: 1.15
  ratio vs. CB, Hippocampus: 0.81
  ratio vs. CB, Hypothalamus: 1.31
  ratio vs. CB, Remainder: 1.53
  ratio vs. CB, Stratum N: 10.2
  ratio vs. CB, Striatum L: 9.07

From patent US8562949B2, “Radiolabeled dihydrotetrabenazine derivatives and their use as imaging agents” (The Trustees of the University of Pennsylvania, priority 2006, dated 2013)
